The values that follow come from US20090143279A1 (priority 2007, published 2009).

“And” between values parts separate entries of the source, which are not always exact repeats. Equal entries are not always repeated. Structures can show the parent of a compound that is named as a salt. Where a SMILES comes first, the peptide text is derived from it.

The subject of one assay is cytochrome c. It counts as cell-based, mouse.
Settings: not given
Turning to `C=CCOc1ccccc1OCC(O)CNC(C)C` (stereo not drawn) [oxprenolol], the cyt c came to 0.047. As for `CN1CCCCC1CCN1c2ccccc2Sc2ccc([S+](C)[O-])cc21` (stereo not drawn) [mesoridazine], the “cyt c (composite Z-score)” value is listed as −0.121.

For `Nc1c2c(nc3ccccc13)CCCC2` [tacrine], the “cyt c (composite Z-score vs DMSO)” value is −0.250. On to `c1ccc(C2CN3CCSC3=N2)cc1` (stereo not drawn) [tetramisole], for which the cyt c is given as 0.209.

Take `O=C1NS(=O)(=O)c2ccccc21` [saccharin]: the “cyt c (composite Z-score vs DMSO)” value is reported as 0.336. Compound `COc1ccc2c3c1O[C@H]1[C@@H](O)CC=C4[C@@H](C2)N(C)CC[C@]431` [neopine] registered a cyt c of 0.421. With `CN/C(=N/CCSCc1nc[nH]c1C)NC#N` [cimetidine], the cyt c is 0.794 and 0.587. Regarding `O=c1ccc2ccc(O)cc2o1` [umbelliferone], the “cyt c (composite Z-score)” value was −0.272.

The compound `O=c1[nH]cnc2nc[nH]c12` [hypoxanthine] gave a cyt c of 0.608. For `O=C1C=C(O)C(=O)c2ccccc21` [lawsone], the cyt c is listed as −0.273. Still for that read-out and setting: the result for `Cc1cc(O)cc(=O)o1` [4-hydroxy-6-methylpyran-2-one] reads −0.316. On the same count and under the same terms, with `CN1CCC(OC(c2ccccc2)c2ccccc2)CC1` [diphenylpyraline] the figure was 0.321 and 0.558. On the same count and under the same terms, with `NC[C@@H]1CC[C@@H](N)[C@@H](O[C@H]2[C@H](O)[C@@H](O[C@H]3O[C@H](CO)[C@@H](O)[C@H](N)[C@H]3O)[C@H](N)C[C@@H]2N)O1` [dibekacin] the figure was 0.464; with `CN1CCN(CC/C=C2/c3ccccc3Sc3ccc(S(=O)(=O)N(C)C)cc32)CC1` [thiothixene], 0.307. With `O=C1C[C@@H]2OCC=C3CN4CC[C@]56c7ccccc7N1[C@H]5[C@H]2[C@H]3C[C@H]46` [strychnine], the “cyt c (composite Z-score vs DMSO mock-treated wells)” value is on record as 0.031. `CN1CCN2c3ccccc3Cc3ccccc3C2C1` (stereo not drawn) [mianserin] returned a cyt c of 0.027. For `Cc1nc2n(c(=O)c1CCN1CCC(c3noc4cc(F)ccc34)CC1)CCCC2` [risperidone], the “cyt c (composite Z-score vs DMSO)” value was determined as 0.243. `CC(=O)CC(c1ccccc1)c1c(O)c2ccccc2oc1=O` (stereo not drawn) [warfarin] gave a cyt c of 0.267. Take `CC(=O)Nc1ccccc1` [acetanilide]: the “cyt c (composite Z-score vs DMSO)” value was determined as 0.532. On to `CCCSP(=O)(OCC)SCCC` [ethoprop], for which the cyt c was 0.271. Take `N[C@@H](CCC(=O)N[C@@H](CS)C(=O)NCC(=O)O)C(=O)O` [glutathione]: the “cyt c (composite Z-score vs DMSO)” value is −0.913. For `O=C([O-])c1ccccc1O.[Na+]` [sodium salicylate], the cyt c was 0.607. With `CCC(=O)c1ccc2c(c1)N(CC(C)N(C)C)c1ccccc1S2` (stereo not drawn) [propiomazine], the cyt c was −0.368. The compound `CC(C)c1c(C(=O)Nc2ccccc2)c(-c2ccccc2)c(-c2ccc(F)cc2)n1CC[C@@H](O)C[C@@H](O)CC(=O)O` [atorvastatin, reference compound] registered a cyt c of −1.023. In the case of `CN1CCC(=C2c3ccccc3C=Cc3ccccc32)CC1` [cyproheptadine], the “cyt c (composite Z-score)” value is given as 0.064. Consider `CN1[C@@H]2CC[C@H]1C[C@@H](OC(=O)C(CO)c1ccccc1)C2` (stereo partly drawn) [atropine], for which the cyt c was determined as 1.709.

`CC(C)NCC(O)COc1ccc(CC(N)=O)cc1` (stereo not drawn) [atenolol, reference compound]: the “cyt c (composite Z-score vs DMSO)” value amounted to 0.403. For `CN(CCOc1ccc(CC2SC(=O)NC2=O)cc1)c1ccccn1` (stereo not drawn) [rosiglitazone], the cyt c is on record as −0.121.

With `CC1=C(/C=C/C(C)=C/C=C/C(C)=C/C=C/C=C(C)/C=C/C=C(C)/C=C/C2=C(C)CCCC2(C)C)C(C)(C)CCC1` [beta-carotene], the cyt c amounted to 0.027.

Regarding `O=C1CC2(CCCC2)CC(=O)N1CCCCN1CCN(c2ncccn2)CC1` [buspirone], the cyt c worked out at 0.228.

Compound `Cc1onc(-c2c(Cl)cccc2Cl)c1C(=O)N[C@@H]1C(=O)N2[C@@H]1SC(C)(C)[C@@H]2C(=O)O` [dicloxacillin sodium salt] showed a cyt c of 0.836. For `O=C(CCCN1CC=C(n2c(=O)[nH]c3ccccc32)CC1)c1ccc(F)cc1` [droperidol], the “cyt c (composite Z-score vs DMSO)” value is 0.270 and 0.161. In the case of `CC(C)(C)C(=O)C(Oc1ccc(Cl)cc1)n1cncn1` (stereo not drawn) [triadimefon], the cyt c was 0.286.

The same assay, now with this note: composite Z-score vs mock-treated (DMSO) wells; concentration of each compound in μM.
Consider `CC[C@H](C)C(=O)O[C@H]1C[C@H](O)C=C2C=C[C@H](C)[C@H](CC[C@@H](O)C[C@@H](O)CC(=O)O)[C@H]21` [pravastatin, reference compound], for which the cyt c is on record as 0.972.

Take `COc1ccc(CC2c3cc(OC)c(OC)cc3CC[N+]2(C)CCC(=O)OCCCCCOC(=O)CC[N+]2(C)CCc3cc(OC)c(OC)cc3C2Cc2ccc(OC)c(OC)c2)cc1OC` (stereo not drawn) [atracurium]: the cyt c came out at 1.176.

In turn, `CNCC(O)c1ccc(OC(=O)C(C)(C)C)c(OC(=O)C(C)(C)C)c1` (stereo not drawn) [dipivefrin] returned a cyt c of −0.180. Take `NCC(CC(=O)O)c1ccc(Cl)s1` (stereo not drawn) [4-amino-3-(5-chlorothien-2-yl)butanoic acid]: the cyt c is given as 0.593. The compound `O=C1C=C2C=C[C@@H]3C[C@@]2(O1)[C@H]1CCCCN31` [securinine] displayed a cyt c of −0.481. Same read-out and setting: with `COc1ccc(C(CN(C)C)C2(O)CCCCC2)cc1` (stereo not drawn) [venlafaxine] the figure was 0.627. The compound `COC(=O)Nc1nc2ccc([S+]([O-])c3ccccc3)cc2[nH]1` (stereo not drawn) [oxfendazole, reference compound] came in with a cyt c of −0.224.

The compound `CC[C@H]1OC(=O)[C@H](C)C(=O)[C@H](C)[C@@H](O[C@@H]2O[C@H](C)C[C@H](N(C)C)[C@H]2O)[C@](C)(OC)C[C@@H](C)C(=O)[C@H](C)[C@H]2N(CCCCn3cnc(-c4cccnc4)c3)C(=O)O[C@]12C` [telithromycin] displayed a cyt c of −0.023. On the same count and under the same terms, with `COc1c(O[C@@H]2O[C@H](CO)[C@@H](O)[C@H](O)[C@H]2O)cc2c(c1OC)-c1ccc(SC)c(=O)cc1[C@@H](NC(C)=O)CC2` [thiocolchicoside] the figure was 0.108. With `CC(C)(O/N=C(\C(=O)N[C@@H]1C(=O)N2C(C(=O)[O-])=C(C[n+]3ccccc3)CS[C@H]12)c1csc(N)n1)C(=O)O` [ceftazidime], the cyt c is recorded as 0.740. In the case of `CC[C@H]1OC(=O)C[C@@H](O)[C@H](C)[C@@H](O[C@@H]2O[C@H](C)[C@@H](O[C@H]3C[C@@](C)(O)[C@@H](O)[C@H](C)O3)[C@H](N(C)C)[C@H]2O)[C@@H](CC=O)C[C@@H](C)C(=O)/C=C/C(C)=C/[C@@H]1CO[C@@H]1O[C@H](C)[C@@H](O)[C@@H](OC)[C@H]1OC` [tylosin], the cyt c is reported as −0.007. In turn, `C[C@@H]1O[C@@H](OC[C@H]2O[C@@H](Oc3c(-c4ccc(OCCO)c(OCCO)c4)oc4cc(OCCO)cc(O)c4c3=O)[C@H](O)[C@@H](O)[C@@H]2O)[C@H](O)[C@H](O)[C@H]1O` [troxerutin] yielded a cyt c of −0.673. In turn, `O=CC=Cc1ccc(O)cc1` [p-hydroxycinnamaldehyde] gave a cyt c of −0.079. For `CC(=O)SCC(Cc1ccccc1)C(=O)NCC(=O)OCc1ccccc1` (stereo not drawn) [racecadotril], the cyt c is −0.249. Turning to `COc1c(O)cc2c(c1O)[C@@H]1O[C@H](CO)[C@@H](O)[C@H](O)[C@H]1OC2=O` [bergenin], the cyt c is reported as 0.831. Turning to `CO[C@H]1/C=C/O[C@@]2(C)Oc3c(C)c(O)c4c(O)c(c5c(nc6cc(C)ccn65)c4c3C2=O)NC(=O)/C(C)=C\C=C\[C@H](C)[C@H](O)[C@@H](C)[C@@H](O)[C@@H](C)[C@H](OC(C)=O)[C@@H]1C` [rifaximin], the cyt c is −0.471. Compound `CCOC(=O)C1=C(COCCN)NC(C)=C(C(=O)OC)C1c1ccccc1Cl` (stereo not drawn) [amlodipine] displayed a cyt c of 0.902. Regarding `COc1ccccc1N1CCN(CC(O)COc2cccc3ccccc23)CC1` (stereo not drawn) [naftopidil], the cyt c is listed as 0.382. Regarding `C[N+](C)(C)CCOP(=O)(O)OP(=O)([O-])OC[C@H]1O[C@@H](n2ccc(N)nc2=O)[C@H](O)[C@@H]1O` [citicoline], the cyt c was 0.322. As for `C[C@]12CC[C@H](O)CC1=CC[C@@H]1[C@@H]2CC[C@]2(C)C(=O)CC[C@@H]12` [dehydroepiandrosterone], the cyt c was −0.634. In turn, `CC(C)NCC(O)c1ccc(NS(C)(=O)=O)cc1` (stereo not drawn) [sotalol] came in with a cyt c of 0.501.

`CC(C)=CCC[C@@H](C)[C@H]1CC[C@@]2(C)C3=C(CC[C@]12C)[C@@]1(C)CC[C@H](O)C(C)(C)[C@@H]1CC3` [lanosterol] displayed a cyt c of 0.383. As to `CC(C)=CCC[C@]1(C)C=Cc2c(O)c3c(c(CC=C(C)C)c2O1)O[C@]12C(=C[C@@H]4C[C@H]1C(C)(C)O[C@@]2(C/C=C(/C)C(=O)O)C4=O)C3=O` [gambogic acid], the cyt c is on record as −5.596.

On to `CC(C)[C@H](N)C(=O)N[C@@H](Cc1c[nH]c2ccccc12)C(=O)O` [valyltryptophan] (H-Val-Trp-OH), for which the cyt c is −0.626. Take `C[C@H]1CCCC(=O)CCC/C=C/c2cc(O)cc(O)c2C(=O)O1` [zearalenone]: the cyt c is −0.185. `C[C@]12CCC(=O)C=C1C=C[C@@H]1[C@@H]2CC[C@@]2(C)[C@H]1CC[C@@]21CCC(=O)O1` [canrenone] yielded a cyt c of 0.816. The same measure, in the same setting: the result for `N=C(N)NOCC[C@H](N)C(=O)O` [canavanine] reads −0.321.

`COc1ccc(-c2cc(=O)c3c(OC)cc(O)cc3o2)cc1` [5,4′-dimethoxy-7-hydroxyflavone]: the cyt c stood at 0.173. `NC(=O)c1cc[n+](CC2=C(C(=O)O)N3C(=O)[C@@H](NC(=O)[C@@H](c4ccccc4)S(=O)(=O)[O-])[C@H]3SC2)cc1` [cefsulodin]: the cyt c is −1.078. In the case of `COC(=O)C1=C(C)NC(C)=C(C(=O)OC(C)C)C1c1cccc2nonc12` (stereo not drawn) [isradipine], the cyt c came out at 0.236. As to `CCOC(=O)C1=C(C)NC(C)=C(C(=O)OC)C1c1cccc(Cl)c1Cl` (stereo not drawn) [felodipine], the cyt c is −0.956.

The same assay, now with this note: normalized score (composite Z-score vs DMSO mock-treated wells); compound concentration (μM).
In turn, `CCOC(=O)Oc1c(OC)cc(C(=O)O[C@@H]2C[C@@H]3CN4CCc5c([nH]c6cc(OC)ccc56)[C@H]4C[C@@H]3[C@H](C(=O)OC)[C@H]2OC)cc1OC` [syrosingopine] gave a cyt c of 1.051. Compound `COc1cc(N)c(Cl)cc1C(=O)NC1CCN(CCCOc2ccc(F)cc2)CC1OC` (stereo not drawn) [cisapride] yielded a cyt c of −0.495.
